One assay deals with ERβ LBD (Homo sapiens, UniProt Q92731). Kind of assay: DSF on purified ERβ LBD. As to conditions: compound 500 µM; unliganded Tm ∼51°C.
Chain of ERβ LBD (Q92731 261-530): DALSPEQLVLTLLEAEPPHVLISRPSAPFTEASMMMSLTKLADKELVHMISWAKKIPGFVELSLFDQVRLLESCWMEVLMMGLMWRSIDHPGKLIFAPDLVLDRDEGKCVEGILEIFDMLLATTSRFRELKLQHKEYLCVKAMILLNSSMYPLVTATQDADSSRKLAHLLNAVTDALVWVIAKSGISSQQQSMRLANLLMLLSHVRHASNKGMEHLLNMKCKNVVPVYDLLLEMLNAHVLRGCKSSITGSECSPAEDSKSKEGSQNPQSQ
Method: Protein stability was assessed with DSF in absence or presence of test compounds in a LightCycler 480 II qRT-PCR Detection System (Roche) in 384-well format. Sypro-Orange dye (Life Technologies) was used to monitor fluorescence, with filters for fluorescence excitation at 465 nm and for fluorescence emission at 610 nm. […] Tested sample mixtures were heated from 25°C to 96°C at a rate of 0.05°C/sec with 11 acquisitions per °C. Each compound was tested in duplicates. The melting temperature (Tm) for each sample was deduced by the ThermoQ Analytical software (HMRI) from the first derivative of the corresponding denaturation curve generated by the LightCycler 480 software. The same protocol was applied to investigate the stability of purified ERβ and LXRβ LBDs in presence or absence of the compounds. The optimal final concentrations for these experiments were 0.02 mg/mL for ERβ LBD and 0.20 mg/mL for LXRβ LBD. All DSF-based analyses were performed using freshly purified protein.
Regarding `C[C@]12CC[C@@H]3c4ccc(O)cc4CC[C@H]3[C@@H]1CC[C@@H]2O` [E2, estradiol], the “melting temperature shift of ERβ LBD” value is listed as “shifted upward”.

For another assay, the target named is TLX LBD (Homo sapiens, UniProt Q9Y466). The assay can be described thus: Differential scanning fluorimetry (DSF) on purified TLX LBD.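 Note: thermal unfolding followed by Sypro-Orange fluorescence (excitation 465 nm, emission 610 nm) in 384-well plates, Tm taken from the first derivative of the denaturation curve, duplicate samples.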 It is filed as binding. Further details: cDNA fragments encoding human TLX LBD (a.a. 187–385) were cloned; His6 followed by TEV protease cleavage site (N); made in house; host or cells: E. coli BL21 (DE3) star. As to conditions: compound 500 µM. On the technique in general: In DSF a fluorescence change marks the thermal transition of the protein.
Chain of TLX LBD (Q9Y466 187-385): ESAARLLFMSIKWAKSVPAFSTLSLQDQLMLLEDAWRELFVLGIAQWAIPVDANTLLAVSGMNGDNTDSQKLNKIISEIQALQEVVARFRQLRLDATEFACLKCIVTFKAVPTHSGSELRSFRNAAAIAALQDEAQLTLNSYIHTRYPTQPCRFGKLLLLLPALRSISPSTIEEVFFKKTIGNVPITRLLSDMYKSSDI
Method: Protein stability was assessed with DSF in absence or presence of test compounds in a LightCycler 480 II qRT-PCR Detection System (Roche) in 384-well format. Sypro-Orange dye (Life Technologies) was used to monitor fluorescence, with filters for fluorescence excitation at 465 nm and for fluorescence emission at 610 nm. […] Each compound was tested in duplicates. The melting temperature (Tm) for each sample was deduced by the ThermoQ Analytical software (HMRI) from the first derivative of the corresponding denaturation curve generated by the LightCycler 480 software. […] All DSF-based analyses were performed using freshly purified protein.
Turning to `CC(=O)[O][Pb]([O]C(C)=O)([c]1ccccc1)[c]1ccccc1` [[acetyloxy-di(phenyl)plumbyl] acetate], the “hit in DSF screen (able to bind TLX LBD, Tm shift 0.9°C or more), Table S1” value is listed as “Hits from DSF”.
On the same count and under the same terms, in the case of `CC(=O)[O][Hg][c]1c(C)c(C)c(C)c(C)c1C` [acetyloxy-(2,3,4,5,6-pentamethylphenyl)mercury] it was “Hits from DSF”; in that of `O=C([O][Hg][CH2]C1COC([CH2][Hg][O]C(=O)c2ccccc2)CO1)c1ccccc1` (centres unmarked) [benzoyloxy-[[5-(benzoyloxymercuriomethyl)-1,4-dioxan-2-yl]methyl]mercury], “Hits from DSF”.
The same measure, in the same setting: next, `CN(C)c1ccc(C=CC(=O)[O-])cc1.CN(C)c1ccc(C=CC(=O)[O-])cc1.[Cu+2]` [copper 3-(4-dimethylaminophenyl)prop-2-enoate]: “Hits from DSF”; Acetyloxymercury; Phenanthrene: “Hits from DSF”.
With Daptomycin [reference compound], the “hit in DSF screen (able to bind TLX LBD, Tm shift 0.9°C or more), Table S1” value is recorded as “Hits from DSF”.
The same measure, in the same setting: in the case of Kauroic acid it was “Hits from DSF”.
